Measurements from publication PMC8256334, “Simultaneous Determination of a Novel PD-L1 Inhibitor, IMMH-010, and Its Active Metabolite, YPD-29B, in Rat Biological Matrices by Polarity-Switching Liquid Chromatography-Tandem Mass Spectrometry: Application to ADME Studies” (Frontiers in Pharmacology, 2021).
Several values for one entry are separate records, joined by “and”; a condition that tells them apart may be missing. Identical values can stand only once. Like-named read-outs stand apart in the source and are kept apart here.

Columns and labels:
Stability in rat plasma = format: in vitro ADME; conditions: for Accuracy (RE, %) / Measured conc.: n = 5
Protocol: Plasma: IMMH-010 is an ester-containing compound. […] Therefore, heparin sodium and NaF were dissolved with 0.9% w/v sodium chloride to prepare a mixture of 0.5% heparin sodium and 500 mM NaF. All blood was withdrawn into EP tubes containing this mixture (1:9 v/v mixture:blood) followed by plasma separation. The plasma standards for IMMH-010 were prepared at 1, 2, 5, 10, 20, 80, 120 and 200 ng/ml, and those for YPD-29B were prepared at 2.5, 5, 10, 20, 50, 400, 600 and 1,000 ng/ml. QC samples were prepared at 1, 2, 40 and 160 ng/ml for IMMH-010 and 2.5, 5, 200 and 800 ng/ml for YPD-29B.
For short-term and long-term stability, plasma samples were kept at 4°C for 4 h and −20°C for 3 months, respectively. To evaluate freeze-thaw stability, samples were frozen at −20°C for 24 h and thawed at 4°C for three cycles. […] Stability assays of IMMH-010 and YPD-29B were performed at two QC levels (high and low QC) (n = 5).

[1] = Excretion study in rats (urine and feces); format: in vivo, Sprague-Dawley rats; conditions: for excretion in feces, % Of administered dose: i.g. IMMH-010 maleate 10 mg/kg, n = 5
Protocol: (§1) Female Sprague-Dawley rats (200 ± 20 g, Vital River, Beijing, China) were kept in standard environmental conditions. Rats were fasted overnight with free access to water and randomly assigned to different groups before the experiments. All animal protocols were approved by the Institute Animal Care and Welfare Committee of the Institute of Materia Medica, Chinese Academy of Medical Sciences and Peking Union Medical College.
After i. g. administration of IMMH-010 maleate (10 mg/kg), rats were housed in separate metabolite cages to collect their urine and feces: 0–12, 12–24, 24–36, 36–48, and 48–72 h for urine and 0–24, 24–48, and 48–72 h for feces. Fecal samples were dried in air. Urine samples were stored at −20°C prior to analysis.

[2] = PK study in rats after single i.g. administration of IMMH-010 maleate; format: in vivo, Sprague-Dawley rats; conditions: rat plasma; for AUC(0-t) / Cmax / MRT last / Tmax / AUC(0-inf) / MRT inf / half-life: female, Sprague-Dawley, po, n = 5; for AUC(0-t) / Cmax / MRT last / AUC(0-inf) / MRT inf / half-life: mean ± SD; for MRT last: read-out: MRT(0-t); for Tmax: median (range); for MRT inf: read-out: MRT(0-∞); for half-life: rat, plasma, read-out: t1/2β (converted)
From the text: as §1
IMMH-010 maleate was suspended in 0.5% sodium carboxymethyl cellulose. The rats were intragastrically (i.g.) administered IMMH-010 maleate at doses of 10, 30, and 100 mg/kg. Blood samples were withdrawn via the orbital plexus into heparinized tubes with NaF at 5, 15, and 30 min and 1, 2, 4, 6, 8, 12, 24, 36, and 48 h. Plasma was immediately prepared by centrifugation at 5,000 rpm for 10 min. All samples were stored at −20°C prior to analysis. The PK parameters of IMMH-010 and YPD-29B were calculated using the Linear Trapezoidal with Linear Interpolation method by WinNonlin software version 6.3 based on a noncompartmental model (Pharsight Corporation, Mountain View, United States ).

[3] = prepared rat plasma samples, at 15°C in auto-sampler (24 h), spiked 2 ng/ml IMMH-010, 5 ng/ml YPD-29B
[4] = prepared rat plasma samples, at 15°C in auto-sampler (24 h), spiked 160 ng/ml IMMH-010, 800 ng/ml YPD-29B
[5] = prepared rat plasma samples, at 15°C in auto-sampler (48 h), spiked 2 ng/ml IMMH-010, 5 ng/ml YPD-29B
[6] = prepared rat plasma samples, at 15°C in auto-sampler (48 h), spiked 160 ng/ml IMMH-010, 800 ng/ml YPD-29B
[7] = rat plasma, 4°C (4 h), spiked 2 ng/ml IMMH-010, 5 ng/ml YPD-29B
[8] = rat plasma, 4°C (4 h), spiked 160 ng/ml IMMH-010, 800 ng/ml YPD-29B
[9] = rat plasma, stored at −20°C (3 months), spiked 2 ng/ml IMMH-010, 5 ng/ml YPD-29B
[10] = rat plasma, stored at −20°C (3 months), spiked 160 ng/ml IMMH-010, 800 ng/ml YPD-29B
[11] = rat plasma, three freeze–thaw cycles, spiked 2 ng/ml IMMH-010, 5 ng/ml YPD-29B
[12] = rat plasma, three freeze–thaw cycles, spiked 160 ng/ml IMMH-010, 800 ng/ml YPD-29B
[13] = single i.g. IMMH-010 maleate 10 mg/kg
[14] = single i.g. IMMH-010 maleate 30 mg/kg
[15] = single i.g. IMMH-010 maleate 100 mg/kg

Which results are given for `CC(C)OC(=O)C(CO)NCc1cc(Cl)c(OCc2cccc(-c3ccccc3)c2Br)cc1OCc1cccnc1` (stereo not drawn) [IMMH-010, 2-[4-(2-bromo-biphenyl-3-ylmethoxy)-5-chloro-2-(pyridin-3-ylmethoxy)-benzylamino]-3-hydroxy-propionic acid isopropyl ester]?
stability in rat plasma with esterase inhibitor (Stability in rat plasma; 4°C, rat plasma containing 50 mM NaF, preliminary results): stable; Accuracy (RE, %) (Stability in rat plasma; [3]): −6.0%; Measured conc. (Stability in rat plasma; [3]): 1.88 ± 0.21 ng/mL; Accuracy (RE, %) (Stability in rat plasma; [4]): −7.5%; Measured conc. (Stability in rat plasma; [4]): 148 ± 4 ng/mL; Accuracy (RE, %) (Stability in rat plasma; [5]): 2.0%; Measured conc. (Stability in rat plasma; [5]): 2.04 ± 0.07 ng/mL; Accuracy (RE, %) (Stability in rat plasma; [6]): −3.8%; Measured conc. (Stability in rat plasma; [6]): 154 ± 4 ng/mL; stability during the sample preparation, storage and analysis (Stability in rat plasma; rat plasma: 4°C 4 h, −20°C 3 months, three freeze-thaw cycles, autosampler 10°C 48 h): stable; Accuracy (RE, %) (Stability in rat plasma; [7]): 2.5%; Measured conc. (Stability in rat plasma; [7]): 2.05 ± 0.10 ng/mL; Accuracy (RE, %) (Stability in rat plasma; [8]): 8.1%; Measured conc. (Stability in rat plasma; [8]): 173 ± 20 ng/mL; Accuracy (RE, %) (Stability in rat plasma; [9]): 12.0%; Measured conc. (Stability in rat plasma; [9]): 2.24 ± 0.10 ng/mL; Accuracy (RE, %) (Stability in rat plasma; [10]): 3.8%; Measured conc. (Stability in rat plasma; [10]): 166 ± 4 ng/mL; Accuracy (RE, %) (Stability in rat plasma; [11]): 5.5%; Measured conc. (Stability in rat plasma; [11]): 2.11 ± 0.22 ng/mL; Accuracy (RE, %) (Stability in rat plasma; [12]): −1.9%; Measured conc. (Stability in rat plasma; [12]): 157 ± 4 ng/mL; excretion in feces, % Of administered dose ([1]; time 24 h): 6.97 ± 5.69 % Of administered dose; excretion in feces, % Of administered dose ([1]; time 48 h): 7.99 ± 5.66 % Of administered dose; excretion in feces, % Of administered dose ([1]; time 72 h): 7.99 % Of administered dose and 7.99 ± 5.66 % Of administered dose; share of the dose recovered in the urine and feces as this analyte ([1]; urine and feces within 72 h, rats, oral IMMH-010 maleate): 7.99%; AUC(0-t) [2, 13]: 8.5 ± 3.67 ng·h/mL; Cmax [2, 13]: 8.45 ± 3.27 ng/mL; MRT last [2, 13]: 0.8 ± 0.13 h; Tmax [2, 13]: 0.5 h; AUC(0-inf) [2, 14]: 44.1 ± 20.6 ng·h/mL; AUC(0-t) [2, 14]: 37.5 ± 13.5 ng·h/mL; Cmax [2, 14]: 28.4 ± 13 ng/mL; MRT last [2, 14]: 1.09 ± 0.21 h; MRT inf [2, 14]: 1.49 ± 0.3 h; Tmax [2, 14]: 0.5 h; AUC(0-inf) [2, 15]: 134 ± 45.7 ng·h/mL; AUC(0-t) [2, 15]: 129 ± 45.6 ng·h/mL; Cmax [2, 15]: 71.4 ± 34 ng/mL; MRT last [2, 15]: 1.82 ± 0.53 h; MRT inf [2, 15]: 2.11 ± 0.69 h; Tmax [2, 15]: 0.5 h; half-life ([2]; 30 mg/kg, single i.g. IMMH-010 maleate 30 mg/kg): 0.98 ± 0.28 h; half-life ([2]; 100 mg/kg, single i.g. IMMH-010 maleate 100 mg/kg): 1.63 ± 0.49 h; dose dependence of AUC ([2]; dose range 10–100 mg/kg IMMH-010 maleate, oral): proportional to the dose
